Test results: patent US10149855B2, “Gamma-secretase inhibition reduce APOC3 levels and plasma triglycerides” (THE TRUSTEES OF COLUMBIA UNIVERSITY IN THE CITY OF NEW YORK, priority 2014, dated 2018)

What was measured:
[1] = system: ApoC3; assay: Plasma ApoC3 levels in GSI-treated mice; format: in vivo
Source text: (§1) Plasma triglyceride lowering in genetic (leptin deficient ob/ob mice) or diet-induced mouse models of obesity was even more profound, with reductions approaching 75% of vehicle-treated animals. […] L-Ncst mice had similar reductions in plasma triglyceride as GSI-treated mice, proof that the mechanism of GSI-induced reduction in plasma triglyceride is through effects on liver. L-Ncst mice had approximately 40% reduced plasma triglyceride as compared to control mice when fed normal chow, but this rises to a staggering 70% reduction when mice were challenged with high-fat diet feeding. […] As such, gamma-secretase inhibition with GSIs or liver-specific gamma-secretase blockers would be predicted to have a greater, and perhaps synergistic, effect in reducing plasma triglyceride as compared to drugs that solely target ApoC3 expression.

[2] = system: mice; conditions: mouse, in vivo
[3] = system: DIO mice; assay: Fasted/refed plasma glucose and glucose clearance in GSI-treated mice; format: in vivo; conditions: compared to vehicle (FIG. 3 Panel A)
[4] = system: mice; assay: Triglyceride secretion after lipoprotein lipase inhibition with Poloxamer 407; format: in vivo; conditions: plasma TG after lipoprotein lipase inhibition with Poloxamer 407 (FIG. 7)
Source text: DBZ-induced lower plasma TG in diet-induced obese (DIO) and leptin-deficient obese (ob/ob) mice is in the VLDL fraction. […] To differentiate these—we created a liver-specific gamma-secretase knockout mouse.

[5] = system: Lean mice, diet induced obese (DIO) mice, and leptin-deficient obese (ob/ob) mice; assay: Weight, glucose and insulin of mice administered GSI (DBZ) or vehicle; format: in vivo
Protocol: Lean mice, diet induced obese (DIO) mice, and leptin-deficient obese (ob/ob) mice were administered either vehicle or GSI. [table]

[6] = system: lean, diet-induced obese (DIO) and leptin-deficient obese (ob/ob) mice; assay: Plasma/serum triglyceride levels in mice treated with GSI or vehicle; format: in vivo
Protocol: as §1, with “Mice were administered GSI or vehicle alone to determine the effect of GSI treatment on serum triglyceride levels. […] Plasma” for “Plasma”

[7] = system: Nicastrin; assay: shRNA-mediated knockdown of Nicastrin, ApoC3 secretion; format: cell-based; conditions: mouse hepatocytes (FIG. 25)

Compound | plasma ApoC3 levels [1] | gastrointestinal (GI) toxicity [2] | fasted and refed glucose [3] | TG secretion [4] | Glucose ([5]; DIO mice) | Insulin ([5]; DIO mice) | Glucose ([5]; lean mice) | Insulin ([5]; lean mice) | Glucose ([5]; ob/ob mice) | Insulin ([5]; ob/ob mice) | triglycerides in VLDL, LDL and HDL fractions ([6]; DIO and ob/ob mice (FIG. 5)) | plasma triglyceride ([6]; lean mice) | plasma triglyceride reduction ([6]; ob/ob or diet-induced obese mice, relative to vehicle-treated animals) | plasma triglyceride (TG) ([6]; obese mice (DIO and ob/ob), compared to vehicle (FIG. 4)) | ApoC3 secretion [7]
C[C@H](NC(=O)Cc1cc(F)cc(F)c1)C(=O)N[C@@H]1C(=O)N(C)c2ccccc2-c2ccccc21 [GSI, N-[(1S)-2-[[(7S)-6,7-dihydro-5-methyl-6-oxo-5H-dibenz[b,d]azepin-7-yl]amino]-1-methyl-2-oxoethyl]-3,5-difluoro-benzeneacetamide] | markedly and proportionately reduced | not associated with apparent gastrointestinal (GI) toxicity | reduced both fasted as well as refed (or exogenous) glucose | does not affect TG secretion | 72 ± 5 mg/dL | 1.33 ± 0.32 ng/mL | 64 ± 2 mg/dL | 0.49 ± 0.04 ng/mL | 98 ± 6 mg/dL | 15.6 ± 3.25 ng/mL | lowered triglycerides in the VLDL fraction | reduces plasma triglyceride in a dose-dependent manner | ~75% | lower plasma triglyceride | 
SEQ ID NO. 59: shRNA for knockdown of Nicastrin, sequence CTCCTTCCACAATCGGTATTA (listed as DNA, chemistry not fully specified; listed as Rattus norvegicus) |  |  |  |  |  |  |  |  |  |  |  |  |  |  | reduces ApoC3 secretion
